According to paper PMC6595003, “Insights into real-time chemical processes in a calcium sensor protein-directed dynamic library” (Nature Communications, 2019):
Several values for one entry are separate records, joined by “and”; a condition that tells them apart may be missing. Equal values may be shown once.

Experiments:
dNCS-1 = molecular target: T1, dNCS-1 (Drosophila melanogaster, UniProt Q9VWX8); experiment: Protein-directed DCL, HPLC-MS relative peak area with and without dNCS-1
T1 construct: made in house; host or cells: E. coli
T1 sequence (Q9VWX8 1-187): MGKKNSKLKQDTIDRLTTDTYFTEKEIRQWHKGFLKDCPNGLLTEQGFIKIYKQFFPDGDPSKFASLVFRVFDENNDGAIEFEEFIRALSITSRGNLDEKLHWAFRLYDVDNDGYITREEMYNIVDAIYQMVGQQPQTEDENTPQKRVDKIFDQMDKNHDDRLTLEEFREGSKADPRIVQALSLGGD
Procedure: The reversibility of the DCL was evident, since an identical equilibrium distribution to that shown in Fig. 4a was obtained when two different starting points were employed. The observed degree of amplification was 3b > 3e ≥ 3d > 3a. The precise composition of the DCL (with and without dNCS-1), was assessed by measuring the relative peak area (RPA). Indeed, the normalized change of RPA was used to quantify the protein influence in the final outcome (Supplementary Figs. 9, 10 and Supplementary Tables 1, 2 and 3)[28]. […] Note that compounds 3a–3e can exist as E/Z isomers of the C = N bond. […].
Aldehyde 1 (1.2 μL, 50 mM, DMSO), the five acylhydrazides 2a–2e (5 × 3.6 μL, 50 mM, DMSO), p-anisidine (1 μL, 12 M, DMSO) and buffer 20 mM Tris, 0.5 M NaCl and 1 mM CaCl2, 1 mM DTT at pH 7.4 (750 μL) in 3.3 % DMSO. The mixture was stabilized in 5 h at 4 °C. HPLC analysis was performed.
Aldehyde 1 (1.2 μL, 50 mM, DMSO), the five acylhydrazides 2a–2e (5 × 3.6 μL, 50 mM, DMSO), p-anisidine (1 μL, 12 mM, DMSO) and dNCS-1 in buffer 20 mM Tris, 0.5 M NaCl and 1 mM CaCl2, 1 mM DTT at pH 7.4 (66.7 μM, 750 μL, 1 eq.). The experiment is in 3.3% DMSO. The mixture was stabilized for 5 h at 4 °C. Then, dNCS-1 was removed by ultrafiltration using an Amicon Ultra filter (0.5–10 KDa). HPLC analysis was performed and the traces were compared with the blank composition.
Supplementary Figure 9. Relative Peak Area of the DCL with and without dNCS1. Aldehyde
1 (1.2 µL, 50 mM), 2a-e (3.6 µL, 50 mM), catalyst (1 µL, 12 M), dNCS-1:1 [1:1], tris buffer (20
mM, pH 7.4), 1 mM CaCl2, 0.5 M NaCl, 1 mM DTT, T = 4 °C, 2% DM SO. Mean relative peak
area (RPA) of each acylhydrazone of the library in the absence (blank) and presence of dNCS-1.
Error bars indicate standard deviation (SD) over three experiments. The calculation is set by the
sum of all peak areas to 100% and assigning each peak its percentage. Source data are provided
R P A N o rm aliz ed V a riation
Supplementary Figure 10. RPA normalized of variation of DCL with and without dNCS1.
Aldehyde 1 (1.2 µL, 50 mM), 2a-e (3.6 µL, 50 mM), catalyst (1 µL, 12 M), dNCS-1:1 [1:1], tris
buffer (20 mM, pH 7.4), 1 mM CaCl2, 0.5 M NaCl, 1 mM DTT, T = 4 °C, 2% DM SO. Error
bars indicate SD over three experiments. Source data are provided as a Source Data file.

[1] = commercial drugs; ref 5 (Hou et al., 2004); cited from earlier work
[2] = Parallel artificial membrane permeability assay (PAMPA-BBB); format: in vitro ADME; conditions: for Pe (10-6 cm s-1) Experimental 1 / Pe (10-6 cm s-1) Experimental 2 / Pe (10-6 cm s-1) Experimental 3: source data; for Papp at 2.5 h: pig, PAMPA-BBB, pH 7.4, 5% DMSO, 2 h 30 min at 25 °C, mean ± SD, read-out: Pe, in vitro permeability
From the text: The PAMPA methodology is a high-throughput technique to predict passive permeability through biological membranes that employs a brain lipid porcine as membrane. […]
From this equation and following the pattern established in the literature for BBB permeation prediction2 we could classify compounds as CNS + when they present a permeability > 4.50 x 10-6 cm s-1. Source data are provided as a Source Data file. […]
Parallel artificial membrane permeability assays. Prediction of the brain penetration was evaluated using a parallel artificial membrane permeability assay (PAMPA).4 Ten commercial drugs, phosphate buffer saline solution at pH 7.4 (PBS). DMSO and dodecane were purchased from Sigma, Across organics, Aldrich and Fluka. The porcine […]
plate was a 96-well filtrate plate (Multiscreen® IP Sterile Plate PDVF membrane, pore […]
MAIPS4510) and the acceptor plate was an indented 96-well plate (Multiscreen®, catalog no. MAMCS9610) both from Millipore. Filter PDVF […]
membrane units (diameter 30 mm, pore size 0.45 µm) from Symta were used to filter the samples. A 96-well plate UV reader (Thermoscientific, Multiskan spectrum) was used for the UV measurements.

NCS-1/Ric8a interaction = tested on: NCS-1/Ric8a interaction; set-up: method as in PMID 28119500, PMID 29966094; conditions: cited from earlier work

O=C(N/N=C/c1ccc([N+](=O)[O-])c(O)c1)c1cccs1 [3e]
RPA, Blank DCL (dNCS-1; as fraction of total area): 0.3277
RPA, Templated DCL (dNCS-1; as fraction of total area, with dNCS-1): 0.4342
RPA (%) with protein (templated DCL) (dNCS-1; relative peak area in presence of dNCS-1): 43.4% and 43.4187%
RPA (%) without protein (blank DCL) (dNCS-1; relative peak area, sum of all peak areas set to 100%): 32.8% and 32.7742%
RPA (%), Blank DCL (dNCS-1; sheet Supplementary Figure 10): 32.8%
RPA (%), Templated DCL (dNCS-1; sheet Supplementary Figure 10, with dNCS-1): 43.4%

CC(=O)Oc1ccccc1C(=O)O [Aspirin]
Experimental log S [1]: -1.72

CCOC(=O)c1ccc(N)cc1 [Benzocaine]
Experimental log S [1]: -2.32

Cn1c(=O)c2c(ncn2C)n(C)c1=O [Caffeine]
Pe (10-6 cm s-1) Experimental 1 [2]: 1.3 10-6 cm s-1
Pe (10-6 cm s-1) Experimental 2 [2]: 0.87 10-6 cm s-1
Pe (10-6 cm s-1) Experimental 3 [2]: 1.70 10-6 cm s-1

CCOP(=S)(OCC)Oc1nc(Cl)c(Cl)cc1Cl [Chlorpyriphos]
Experimental log S [1]: -5.49

CNCCCN1c2ccccc2CCc2ccccc21 [Desipramine]
Pe (10-6 cm s-1) Experimental 2 [2]: 16.20 10-6 cm s-1
Pe (10-6 cm s-1) Experimental 3 [2]: 13.70 10-6 cm s-1

CN(C)C(=O)Nc1ccc(Cl)c(Cl)c1 [Diuron]
Experimental log S [1]: -3.80

CCn1cc(C(=O)O)c(=O)c2cc(F)c(N3CCNCC3)nc21 [Enoxacin]
Pe (10-6 cm s-1) Experimental 1 [2]: 1.4 10-6 cm s-1
Pe (10-6 cm s-1) Experimental 2 [2]: 1.30 10-6 cm s-1
Pe (10-6 cm s-1) Experimental 3 [2]: 1.47 10-6 cm s-1

O=C(CN1CCCCC1)NN1c2ccccc2Sc2ccccc21 [FD44]
reported inhibition of the NCS-1/Ric8a interaction (NCS-1/Ric8a interaction): strong

O=C(CC(c1ccccc1)c1ccccc1)Nc1nc2ccccc2s1 [IGS-1.76]
reported inhibition of the NCS-1/Ric8a interaction (NCS-1/Ric8a interaction): strong

Cl[C@H]1[C@H](Cl)[C@@H](Cl)[C@@H](Cl)[C@H](Cl)[C@H]1Cl [Lindane]
Experimental log S [1]: -4.64

CCOC(=O)CC(SP(=S)(OC)OC)C(=O)OCC (stereo not shown) [Malathion]
Experimental log S [1]: -3.37

O=C1CN(/N=C/c2ccc([N+](=O)[O-])o2)C(=O)N1 [Nitrofurantoin]
Experimental log S [1]: -3.47

CCOP(=S)(OCC)Oc1ccc([N+](=O)[O-])cc1 [Parathion]
Experimental log S [1]: -4.66

O=C1OC(c2ccc(O)cc2)(c2ccc(O)cc2)c2ccccc21 [Phenolpthalein]
Experimental log S [1]: -2.60

O=C1NC(=O)C(c2ccccc2)(c2ccccc2)N1 [Phenytoin]
Experimental log S [1]: -3.99

CN1C(C(=O)Nc2ccccn2)=C(O)c2ccccc2S1(=O)=O [Piroxicam]
Papp at 2.5 h [2]: 1.3 ± 0.2 ×10⁻⁶ cm/s
Pe (10-6 cm s-1) Experimental 1 [2]: 1.3 10-6 cm s-1
Pe (10-6 cm s-1) Experimental 2 [2]: 1.16 10-6 cm s-1
Pe (10-6 cm s-1) Experimental 3 [2]: 1.44 10-6 cm s-1

CN(C)CCCN1c2ccccc2Sc2ccccc21 [Promazine]
Papp at 2.5 h [2]: 9.5 ± 0.6 ×10⁻⁶ cm/s
Pe (10-6 cm s-1) Experimental 1 [2]: 9.5 10-6 cm s-1
Pe (10-6 cm s-1) Experimental 2 [2]: 9.04 10-6 cm s-1
Pe (10-6 cm s-1) Experimental 3 [2]: 9.94 10-6 cm s-1
